The numbers were not newly measured in US20050042196A1, “Antimicrobial phenol containing cyanoacrylate compositions” (priority 2003, published 2005), which cites them from elsewhere.

SMILES strings stand for the structures.

For the data set the following is noted: aqueous.

In the case of `[O-][Cl+3]([O-])([O-])O` [perchloric acid], the pKa is −5.
